Assay results published in patent US4017632A, “Phenoxyacetic acid derivatives” (Centre European de Recherches Pharmacologiques C.E.R.P.H.A., priority 1975, dated 1977).

Assays:
[1] = Acute toxicity per os in mice; conditions: mouse, in vivo, po; for LD50 at 48 h: male mice (Swiss C.D), per os, mortality after 48 hours, read-out: LD 50 per os
Experimental: The compounds were administered in the usual way to lots of 10 male mice (Swiss C.D) of average weight 20 g. Mortality was assessed after 48 hours for toxicity per os.

diuresis = experiment: Diuretic activity in mice; type: in vivo
Experimental: The activity is determined on mice. The ratio R of the mean values of diuresis obtained for the treated animals to the mean values for control animals are determined.

[2] = system: retention of phenol red in the circulation; experiment: Uricosuric activity: retention of phenol red in the circulation of the rat; type: in vivo; conditions: 100 mg/kg per os; for % of retention (phenol red), 15 mn: 15 min after phenol red injection; for % of retention (phenol red), 30 mn: 30 min after phenol red injection; for % of retention (phenol red), 45 mn: 45 min after phenol red injection; for % of retention (phenol red), 60 mn: 60 min after phenol red injection
Experimental: This activity was determined by the ability of the compounds to cause retention of phenol red in the circulation of the rat, method described by
Scarborough h. c. and M. C. KINNEY G. R. --
The products were administered one hour before phenol red injection to batches of 5 rats of 250-280 g; anesthetized with ether, the animals received an I.V. injection of 1 cm3 of a 1% phenol red solution. Blood samplings were made 15, 30, 45 and 60 minutes after injection. The pink colour develop after addition to the plasma of an N/10 aqueous solution of sodium hydroxide.
For instance the compounds of examples 5 and 1, and benziodarone give the following results for a dosis of 100 mg/kg per os.

[3] = system: urinary excretion and clearance of uric acid; experiment: Uricosuric activity in the phosphate-mannitol infused mongrel dog (renal clearance); type: in vivo
Experimental: The uricosuric activity of the compound of example 1 was further studied.
The uricosuric activity is determined by intravenous administration of a test compound to the phosphate-mannitol infused mongrel dog as a rapid injection at doses of 5 or 15 mg/kg. Renal clearance studies are compared against control experiments conducted in the same dogs. The urate clearance is calculated from the plasma and urinary concentrations. […] For example, compound of example 1 at a dose of 5 mg/kg i.v. increased urate excretion as a percentage of glomerular filtration rate from a value of 27% up to 40% and at a dose of 15 mg/kg i.v. increased it from 28% up to 74%.

## O=C(O)COc1ccc(C(O)c2cccs2)c(Cl)c1Cl (centres unmarked) [Example 1, 2,3-dichloro-4-(2-thienyl-hydroxy-methyl)-phenoxy-acetic acid]
[1]
  LD50 at 48 h: 1000 mg/kg
diuresis; 100 mg/kg P.O.
  ratio R of mean diuresis of treated animals to control animals: 1.6
[2]
  % of retention (phenol red), 15 mn: 51%
  % of retention (phenol red), 30 mn: 44%
  % of retention (phenol red), 45 mn: 31%
  % of retention (phenol red), 60 mn: 28%
[3]; 5 mg/kg i.v., increased from a value of 27%
  urate excretion as a percentage of glomerular filtration rate: 40%
[3]; 15 mg/kg i.v., increased from 28%
  urate excretion as a percentage of glomerular filtration rate: 74%

## O=C(O)COc1c(Br)cc(C(O)c2cccs2)cc1Br (centres unmarked) [Example 5, 2,6-dibromo-4-(2-thienyl-hydroxy-methyl)-phenoxy-acetic acid]
[1]
  LD50 at 48 h: > 1000 mg/kg
[2]
  % of retention (phenol red), 15 mn: 68%
  % of retention (phenol red), 30 mn: 123%
  % of retention (phenol red), 45 mn: 105%
  % of retention (phenol red), 60 mn: 58%

## CCc1oc2ccccc2c1C(=O)c1cc(I)c(O)c(I)c1 [benziodarone, reference compound]
[1]
  LD50 at 48 h: 1400 mg/kg
[2]
  % of retention (phenol red), 15 mn: 37%
  % of retention (phenol red), 30 mn: 50%
  % of retention (phenol red), 45 mn: 53%
  % of retention (phenol red), 60 mn: 18%

## C=C(CC)C(=O)c1ccc(OCC(=O)O)c(Cl)c1Cl [ethacrynic acid, reference compound]
[1]; P.O., ethacrynic acid, given in the diuretic activity section, read-out: DL 50 P.O.
  LD50: 600 mg/kg
diuresis; 20 mg/kg P.O.
  ratio R of mean diuresis of treated animals to control animals: 2.4
